# Source: US9346817B2, “Dioxino- and oxazin-[2,3-D]pyrimidine PI3K inhibitor compounds and methods of use” (Genentech, Inc., priority 2012, dated 2016)
# How the values were obtained:
# [1] = Brain protein binding in rats; assay type: in vitro ADME; conditions: rat, read-out: Brain protein binding (mean bound %) (converted)
# Description: Brain protein binding in rats was measured for Formula I exemplary compounds, including the following: […]
# [2] = tested on: MDA-MB-361.1 cells (breast, PI3K mutation); assay: In vitro cell proliferation assay (CellTiter-Glo), MDA-MB-361.1; assay type: cell-based; conditions: Cell line: MDA-MB-361.1; Tissue type: breast; Mutation Status: PI3K
# Description: (§1) The cytotoxic or cytostatic activity of Formula I exemplary compounds was measured by: establishing a proliferating mammalian tumor cell line in a cell culture medium, adding a Formula I compound, culturing the cells for a period from about 6 hours to about 5 days; and measuring cell viability (Example 902). Cell-based in vitro assays were used to measure viability, i.e. proliferation (IC50), cytotoxicity (EC50), and induction of apoptosis (caspase activation).
# (§2) The in vitro potency of Formula I exemplary compounds was measured by the cell proliferation assay, CellTiter-Glo® Luminescent Cell Viability Assay, commercially available from Promega Corp., Madison, Wis. (Example 902). This homogeneous assay method is based on the recombinant expression of Coleoptera luciferase (U.S. Pat. No. 5,583,024; U.S. Pat. No. 5,674,713; U.S. Pat. No. 5,700,670) and determines the number of viable cells in culture based on quantitation of the ATP present, an indicator of metabolically active cells (Crouch et al (1993) J. Immunol. Meth. 160:81-88; U.S. Pat. No. 6,602,677). The CellTiter-Glo® Assay was conducted in 96 or 384 well format, making it amenable to automated high-throughput screening (HTS) (Cree et al (1995) AntiCancer Drugs 6:398-404). The homogeneous assay procedure involves adding the single reagent (CellTiter-Glo® Reagent) directly to cells cultured in serum-supplemented medium. Cell washing, removal of medium and multiple pipetting steps are not required. The system detects as few as 15 cells/well in a 384-well format in 10 minutes after adding reagent and mixing.
# (§3) The homogeneous “add-mix-measure” format results in cell lysis and generation of a luminescent signal proportional to the amount of ATP present. The amount of ATP is directly proportional to the number of cells present in culture. The CellTiter-Glo® Assay generates a “glow-type” luminescent signal, produced by the luciferase reaction, which has a half-life generally greater than five hours, depending on cell type and medium used. Viable cells are reflected in relative luminescence units (RLU). The substrate, Beetle Luciferin, is oxidatively decarboxylated by recombinant firefly luciferase with concomitant conversion of ATP to AMP and generation of photons. The extended half-life eliminates the need to use reagent injectors and provides flexibility for continuous or batch mode processing of multiple plates. This cell proliferation assay can be used with various multiwell formats, e.g. 96 or 384 well format. Data can be recorded by luminometer or CCD camera imaging device. The luminescence output is presented as relative light units (RLU), measured over time.
# (§4) The anti-proliferative effects of Formula I exemplary compounds were measured by the CellTiter-Glo® Assay (Example 902) against several tumor cell lines. Potency EC50 values were established for the tested compounds. The range of in vitro cell potency activities was about 100 nM to about 10 μM.
# (§5) Efficacy of Formula I compounds was measured by a cell proliferation assay employing the following protocol (Promega Corp. Technical Bulletin TB288; Mendoza et al (2002) Cancer Res. 62:5485-5488):
# (§6) 1. An aliquot of 100 μl of cell culture containing about 10^4 cells (PC3 (prostate cancer), Detroit562 (pharynx carcinoma), or MDAMB361.1 (breast cancer) in medium was deposited in each well of a 384-well, opaque-walled plate.
# (§7) 2. Control wells were prepared containing medium and without cells.
# (§8) 3. The compound was added to the experimental wells and incubated for 3-5 days.
# (§9) 4. The plates were equilibrated to room temperature for approximately 30 minutes.
# (§10) 5. A volume of CellTiter-Glo® Reagent equal to the volume of cell culture medium present in each well was added.
# (§11) 6. The contents were mixed for 2 minutes on an orbital shaker to induce cell lysis.
# (§12) 7. The plate was incubated at room temperature for 10 minutes to stabilize the luminescence signal.
# (§13) 8. Luminescence was recorded and reported in graphs as RLU=relative luminescence units. […]
# [3] = tested on: PC3 cells (prostate, PTEN mutation); assay: In vitro cell proliferation assay (CellTiter-Glo), PC3; assay type: cell-based; conditions: Homo sapiens, PC-3; Cell line: PC3; Tissue type: prostate; Mutation Status: PTEN
# Description: as §1, §2, §3, §4, §5, §6, §7, §8, §9, §10, §11, §12, §13
SMILES,fraction unbound [1],EC50 [2] [nM],EC50 [3] [nM]
"Nc1ncc(-c2nc3c(c(N4CCOCC4)n2)OCC(CF)O3)cn1 (centres unmarked) [Compound 116, 5-[7-(fluoromethyl)-4-morpholino-6,7-dihydro-[1,4]dioxino[2,3-d]pyrimidin-2-yl]pyrimidin-2-amine]",0.17,730,760
"Nc1ncc(-c2nc3c(c(N4CCOCC4)n2)OCC(C(F)(F)F)O3)cn1 (centres unmarked) [Compound 105, 5-[4-morpholino-7-(trifluoromethyl)-6,7-dihydro-[1,4]dioxino[2,3-d]pyrimidin-2-yl]pyrimidin-2-amine]",0.183,275,500
"CC1(C)COc2c(nc(-c3cccc(NS(C)(=O)=O)c3)nc2N2CCOCC2)O1 [Compound 114, N-[3-(7,7-dimethyl-4-morpholino-6H-[1,4]dioxino[2,3-d]pyrimidin-2-yl)phenyl]methanesulfonamide]",,> 7500,> 10000
"CC1COc2c(nc(-c3cnc(N)nc3)nc2N2CCOCC2)O1 (centres unmarked) [Compound 103, 5-(7-methyl-4-morpholino-6,7-dihydro-[1,4]dioxino[2,3-d]pyrimidin-2-yl)pyrimidin-2-amine]",,630,606
"CC1(C)COc2c(nc(-c3ccc4[nH]ccc4c3)nc2N2CCOCC2)O1 [Compound 115, 2-(1H-indol-5-yl)-7,7-dimethyl-4-morpholino-6H-[1,4]dioxino[2,3-d]pyrimidine]",,1800,2300
"Nc1ncc(-c2nc3c(c(N4CCOCC4)n2)OC(C2CC2)CO3)cn1 (centres unmarked) [Compound 107, 5-(6-cyclopropyl-4-morpholino-6,7-dihydro-[1,4]dioxino[2,3-d]pyrimidin-2-yl)pyrimidin-2-amine]",,961,1200
"CC1(C)COc2c(nc(-c3cccc(O)c3)nc2N2CCOCC2)O1 [Compound 109, 3-(7,7-dimethyl-4-morpholino-6H-[1,4]dioxino[2,3-d]pyrimidin-2-yl)phenol]",,445,182
"CN1CCOc2c1nc(-c1cnc(N)nc1)nc2N1CCOCC1 [Compound 119, 5-(8-methyl-4-morpholino-7,8-dihydro-6H-pyrimido[5,4-b][1,4]oxazin-2-yl)pyrimidin-2-amine]",,2600,3100
"Nc1ncc(-c2nc3c(c(N4CCOCC4)n2)OCCO3)cn1 [Compound 101, 5-(4-morpholino-6,7-dihydro-[1,4]dioxino[2,3-d]pyrimidin-2-yl)pyrimidin-2-amine]",0.285,1100,1000
"C[C@@H]1COc2nc(-c3cnc(N)nc3)nc(N3CCOCC3)c2O1 [Compound 102, 5-[(6R)-6-methyl-4-morpholino-6,7-dihydro-[1,4]dioxino[2,3-d]pyrimidin-2-yl]pyrimidin-2-amine]",0.2,370,557
"COc1ncc(-c2nc3c(c(N4CCOCC4)n2)OCC(C)(C)O3)cn1 [Compound 110, 2-(2-methoxypyrimidin-5-yl)-7,7-dimethyl-4-morpholino-6H-[1,4]dioxino[2,3-d]pyrimidine]",,4100,4800
"CC(=O)Nc1ccc(-c2nc3c(c(N4CCOCC4)n2)OCC(C)(C)O3)cc1 [Compound 112, N-[4-(7,7-dimethyl-4-morpholino-6H-[1,4]dioxino[2,3-d]pyrimidin-2-yl)phenyl]acetamide]",,1800,2100
"CC1(C)COc2c(nc(-c3cnc(N)nc3)nc2N2CCOCC2)O1 [Compound 104, 5-(7,7-dimethyl-4-morpholino-6H-[1,4]dioxino[2,3-d]pyrimidin-2-yl)pyrimidin-2-amine]",,577,406
"CC(C)(C)C1COc2c(nc(-c3cnc(N)nc3)nc2N2CCOCC2)O1 (centres unmarked) [Compound 108, 5-(7-tert-butyl-4-morpholino-6,7-dihydro-[1,4]dioxino[2,3-d]pyrimidin-2-yl)pyrimidin-2-amine]",,213,338
"CNc1ccc(-c2nc3c(c(N4CCOCC4)n2)OCC(C)(C)O3)cn1 [Compound 113, 5-(7,7-dimethyl-4-morpholino-6H-[1,4]dioxino[2,3-d]pyrimidin-2-yl)-N-methyl-pyridin-2-amine]",,2000,2100
"Nc1ncc(-c2nc3c(c(N4CCOCC4)n2)OCC(CO)O3)cn1 (centres unmarked) [Compound 117, [2-(2-aminopyrimidin-5-yl)-4-morpholino-6,7-dihydro-[1,4]dioxino[2,3-d]pyrimidin-7-yl]methanol]",,669,759
"CC1(C)COc2c(nc(-c3ccc(N)nc3)nc2N2CCOCC2)O1 [Compound 111, 5-(7,7-dimethyl-4-morpholino-6H-[1,4]dioxino[2,3-d]pyrimidin-2-yl)pyridin-2-amine]",,545,480
"CN1C(=O)COc2c(N3CCOCC3)nc(-c3cnc(N)nc3)nc21 [Compound 120, 2-(2-aminopyrimidin-5-yl)-8-methyl-4-morpholino-6H-pyrimido[5,4-b][1,4]oxazin-7(8H)-one]",0.16,570,589
"Nc1ncc(-c2nc3c(c(N4CCOCC4)n2)OCC2(CC2)O3)cn1 [Compound 106, 5-(4-morpholinospiro[6H-[1,4]dioxino[2,3-d]pyrimidine-7,1′-cyclopropane]-2-yl)pyrimidin-2-amine]",0.134,544,489
